Experimental data from patent publication US9096536B2, “Asymmetrically substituted anthrapyridazone derivatives as cytostatics” (BS-154 S.P. ZO.O., priority 2011, dated 2015).

Assays:
[1] = system: human promyelocytic leukemia cell line HL-60; assay: Cytostatic activity in vitro, HL-60 sensitive line; type: cell-based; conditions: 50% inhibition of cell growth after 72 h continuous exposure; read-out: HL60 IC50
Excerpt: (§1) Tables 3 and 4 show cytostatic activity in vitro of 2,6-disubstituted and 2- or 6-monosubstituted (Tab.3), and of 2,5-disubstituted-(Tab.-4) tetracyclic anthrapyridazone derivatives using leukemia cell line HL-60 and the resistant cell sublines with resistance induced by vincristine (MDR-1) or doxorubicin (MRP). Activity of compounds is differentiated depending on their structure, but in all cases resistance indexes are more advantageous in comparison with reference compounds: doxorubicin and mitoxantrone.

HL60/VINC = assay: Cytostatic activity in vitro, vincristine-induced resistant subline (MDR-1); type: cell-based, human; conditions: for IC50: 72 h continuous exposure; for RI resistance index HL60/VINC: IC50(resistant cells)/IC50(sensitive cells), HL60/VINC vs HL60, 72 h
Excerpt: as §1

HL60/DX = assay: Cytostatic activity in vitro, doxorubicin-induced resistant subline (MRP); type: cell-based, human; conditions: for IC50: 72 h continuous exposure; for RI resistance index HL60/DX: IC50(resistant cells)/IC50(sensitive cells), HL60/DX vs HL60, 72 h
Excerpt: as §1

[2] = system: human prostate cancer cell line DU145; assay: Cytostatic activity in vitro, prostate cancer DU145; type: cell-based; conditions: 72 h continuous exposure
Excerpt: (§2) Table 5 presents activity in vitro of anthrapiridazone derivatives towards three cell lines of prostate cancer, naturally multidrug resistant, in comparison with references doxorubicin, mitoxantrone and taxol.

[3] = system: human prostate cancer cell line LNCaP; assay: Cytostatic activity in vitro, prostate cancer LNCaP; type: cell-based; conditions: 72 h continuous exposure
Excerpt: as §2

[4] = system: human prostate cancer cell line PC3; assay: Cytostatic activity in vitro, prostate cancer PC3; type: cell-based; conditions: 72 h continuous exposure
Excerpt: as §2

CT-DNA = assay: Interaction with isolated CT-DNA, fluorescence competition with ethidium bromide; type: binding; conditions: for IC50: 50% decrease in fluorescence intensity of DNA-bromide ethydine complex; for Kapp relative constant of DNA-compound bonding: Kapp = (1.26/C50) × KEtBr, KEtBr = 10^7M
Excerpt: It could be supposed that this property explains cytostatic activity of compounds. In Table 9 there are presented quantitative data on the affinity to DNA of tested compounds using the fluorescence method and competitive affinity to DNA of bromine ethydine and tested compounds.

uterus cancer MES-SA = assay: Cytostatic activity, panel: uterus cancer MES-SA; type: cell-based; conditions: 72 h continuous exposure
Excerpt: (§3) Tables 8A and 8B present cytostatic activity in vitro of selected anthrapyridazone derivatives according to the invention against panel of sensitive and resistant cell lines, in comparison with doxorubicin, cisplatine and mitoxantrone.

MES-SA/DX5 = assay: Cytostatic activity, panel: MES-SA/DX5 resistant to doxorubicin; type: cell-based
Excerpt: as §3

colon cancer LoVo = assay: Cytostatic activity, panel: colon cancer LoVo; type: cell-based; conditions: 72 h continuous exposure
Excerpt: as §3

LoVo/DX = assay: Cytostatic activity, panel: LoVo/DX resistant to doxorubicin; type: cell-based
Excerpt: as §3

[5] = system: lymphoblastic leukemia CCRF-CEM; assay: Cytostatic activity, panel: lymphoblastic leukemia CCRF-CEM; type: cell-based; conditions: 72 h continuous exposure
Excerpt: as §3

CEM/C2 = assay: Cytostatic activity, panel: CEM/C2 resistant to camptotecine; type: cell-based
Excerpt: as §3

[6] = system: promyelolytic leukemia HL-60; assay: Cytostatic activity, panel: promyelolytic leukemia HL-60; type: cell-based; conditions: 72 h continuous exposure
Excerpt: as §3

HL60/MX2 = assay: Cytostatic activity, panel: HL60/MX2 resistant to mitoxantrone; type: cell-based
Excerpt: as §3

[7] = IC50(resistant cells)/IC50(sensitive cells)

SMILES	IC50 [1]	IC50 (HL60/VINC)	RI resistance index HL60/VINC (HL60/VINC)	IC50 (HL60/DX)	RI resistance index HL60/DX (HL60/DX)	IC50 [2]	IC50 [3]	IC50 [4]	IC50 (CT-DNA)	Kapp relative constant of DNA-compound bonding (CT-DNA)	further results
CC(=O)NCCCNc1ccc2c(=O)n(CCN(C)C)nc3c2c1C(=O)c1ccccc1-3 [PDZ-13, 2-[2-(Dimethylamino)ethyl]-6-[(3-acetylaminopropyl)amino]-2,7-dihydro-3H-dibenzo [de,h]cynnoline-3,7-dione]	13 ± 1 nM	421 ± 24 nM	32.4	3240 ± 558 nM	249.2	36.7 ± 7.4 nM	50.7 ± 10.2 nM	106 ± 5.7 nM	1840 ± 160 nM	6.8e+06 M⁻¹	
CCNCCNc1ccc2c(=O)n(CCN(C)C)nc3c2c1C(=O)c1ccccc1-3 [Compound C-180, 2-[2-(Dimethylamino)ethyl]-6-{[2-(ethylamino)ethyl]amino}-2,7-dihydro-3H-dibenzo[de,h]cynnoline-3,7dione]	2.2 ± 0.1 nM	8.7 ± 0.4 nM	4.0	364 ± 36 nM	165.5	22.6 ± 5.2 nM	11 ± 1.4 nM	75.2 ± 16.2 nM	280 ± 50 nM	4.53e+07 M⁻¹	
O=C1c2ccccc2-c2n[nH]c(=O)c3ccc(NCCNCc4ccccc4)c1c23 [PDZ-10, 6-(2-Benzylaminoetyloamino)-2,7-dihydro-3H-dibenzo[de,h]cynnoline-3,7-dione]	758 ± 115 nM	1160 ± 93 nM	1.5	2770 ± 494 nM	3.7	2090 ± 583 nM	1550 ± 363 nM	3010 ± 264 nM	3150 ± 150 nM	4e+06 M⁻¹	
N.N.[Cl][Pt][Cl] [Cisplatina]											IC50 MES-SA (uterus cancer MES-SA): 2.26 ± 0.58 µg/mL; IC50 MES-SA/DX5 (MES-SA/DX5; 72 h continuous exposure): 3.29 ± 0.15 µg/mL; RI MES-SA MES-SA/DX5 (MES-SA/DX5; [7]): 1.5; IC50 LoVo (colon cancer LoVo): 1.59 ± 0.31 µg/mL; IC50 LoVo/DX (LoVo/DX; 72 h continuous exposure): 2.51 ± 0.38 µg/mL; RI LoVo LoVo/DX (LoVo/DX; [7]): 1.6; IC50 CCRF-CEM [5]: 1.44 ± 0.49 µg/mL; IC50 CEM/C2 (CEM/C2; 72 h continuous exposure): 0.44 ± 0.19 µg/mL; RI CCRF-CEM CEM/C2 (CEM/C2; [7]): 0.3; IC50 HL60 [6]: 0.22 ± 0.12 µg/mL; IC50 HL60/MX2 (HL60/MX2; 72 h continuous exposure): 0.56 ± 0.30 µg/mL; RI HL60 HL60/MX2 (HL60/MX2; [7]): 2.5
CCN(CC)CCNc1ccc2c(=O)n(CCN(C)C)nc3c2c1C(=O)c1ccccc1-3 [Compound C-155, 2-[2-(Dimethylamino)ethyl]-6-{[(2-diethylamino)ethyl]amino}-2,7-dihydro-3H-dibenzo[de,h]cynnoline-3,7-dione]	19 ± 4 nM	116 ± 28 nM	6.1	446 ± 100 nM	23.5	71.4 ± 21.6 nM	26.2 ± 7.2 nM	144 ± 32.7 nM	310 ± 10 nM	4.02e+07 M⁻¹	
